We go through two compounds from paper PMC2880208 (Cancer research, 2010).

Series [1] is described as follows: Intratumor distribution of topotecan. The settings on record: U87, TPT25: 25 μg/h topotecan, n=8. It is filed as in vivo, CD1 nude mice.
Series [2] is classed as in vivo, CD1 athymic nude mice. The settings on record: CD1 athymic nude, mouse, iv, 4 mg/kg, 4 mg/kg i.v., mean ± SD.
For series [3] the following is noted: CD1 nude mice; cited from earlier work.
The nature of series [4]: Steady-state.
The conditions of series [5]: subcutaneous glioma xenografts, for 8 hours after a single oral dose of 55 mg/kg; cited from earlier work.
Series [6] concerns U87 cells. Kind of series: Intracellular accumulation of topotecan in vitro. It is filed as cell-based, human. The settings on record: topotecan 0.1 μM, gefitinib 1 or 10 μM, dose-dependent.
In series [7] the test system is U87 cells. Kind of series: Drug sensitivity. It counts as cell-based, human. The settings on record: U87, gefitinib alone 0.001-50 μM.
The conditions of series [8]: cited from earlier work.
The test system of series [9] is MT330 cells. Kind of series: Intracellular accumulation of topotecan in vitro. It counts as cell-based, human. The settings on record: topotecan 0.1 μM, gefitinib 1 or 10 μM, dose-dependent.
The subject of series [10] is MT330 cells. Kind of series: Drug sensitivity. It is filed as cell-based, human. The conditions noted are these: MT330, gefitinib alone 0.001-50 μM.

Read-outs that look alike come from different tables or passages of the source.

One may read the Kp as tissue or fluid exposure divided by exposure in the circulation. As to `CC[C@@]1(O)C(=O)OCc2c1cc1n(c2=O)Cc2cc3c(CN(C)C)c(O)ccc3nc2-1` [topotecan], the “Atot,tumor (total topotecan lactone in tumor homogenate at steady-state)” value in series [1] is recorded as 47 ± 21 ng/mg tumor. The Kp worked out at 0.3 ± 0.11 in series [2] (brain extracellular fluid (microdialysate) / plasma, Pbrain (brain ECF-to-plasma AUC ratio of unbound topotecan lactone), non-tumor-bearing CD1 nude mice, n=7) and 0.42 ± 0.11 in [2] (Pcontralateral (contralateral brain ECF-to-plasma AUC ratio), U87 tumor-bearing mice, n=5). The “Unbound fraction in plasma” value in series [3] was 27%. In [4] (25 μg/h topotecan infusion, before gefitinib, n=15), the “Css,plasma (unbound lactone)” value worked out at 34 ± 8 ng/mL. Also, the “Css,tECF (unbound topotecan lactone in tumor ECF)” value is recorded as 30 ± 12 ng/mL in [4] (U87, 25 μg/h topotecan infusion, after gefitinib 200 mg/kg, n=10); 22 ± 10 ng/mL in [4] (U87, 25 μg/h topotecan infusion, before gefitinib, n=10); 6.4 ± 0.8 ng/mL in series [4] (U87, TPT12-GEF: 12.5 μg/h topotecan after 200 mg/kg gefitinib, n=3).
As for `COc1cc2ncnc(Nc3ccc(F)c(Cl)c3)c2cc1OCCCN1CCOCC1` [gefitinib], the Intratumor gefitinib concentration in series [5] is > 20 µM. Moreover, the “Enhancement of topotecan accumulation by gefitinib” value in series [6] and in series [9] was ≤ 36% throughout. For the same compound, the “Effect on cell growth” value in [7] and in series [10] was “did not substantially affect growth” throughout. The “Effect of gefitinib on topotecan lactone plasma clearance” value in series [8] is reported as “halves”.
